Reference: patent publication US8268278B2, “Phosphorus-calcium-strontium compound and uses thereof in endodontic cements” (Centre National de la Recherche Scientifique, priority 2006, dated 2012)

Tested on: polymicrobial inoculum taken from dental plaque
Test: Inhibition of growth of a polymicrobial inoculum, diffusion in solid agar medium
Type: cell-based
Settings: freshly prepared samples
Text: The activity of these two cements was verified on freshly prepared samples of cement and samples prepared 13 days previously.

With [Ca+2].[OH-].[OH-] [Ca(OH)2, calcium hydroxide] the “RIZ (relative inhibition zone, compared with freshly prepared pure calcium hydroxide)” value was 1.
